# Source: patent publication US20140235542A1, “MODULAR, BIOACTIVE PEPTIDES FOR BINDING NATIVE BONE AND IMPROVING BONE GRAFT OSTEOINDUCTIVITY” (WISCONSIN ALUMNI RESEARCH FOUNDATION, priority 2013, published 2014)
# Square brackets hold non-standard residues; d marks the D form. Ends that are not written are not given here. Gla = N[C@@H](CC(C(=O)O)C(=O)O)C(=O)O
# How the values were obtained:
# hMSCs [1] = assay: Mineralized tissue formation by hMSCs (Alizarin Red-S staining); assay type: cell-based, human; conditions: peptide bound to HA-coated film, vs untreated substrates
# Protocol: hMSCs (Cambrex, Walkersville, Md., passages 5-6) were cultured in mesenchymal stem cell growth medium (MSCGM: Cambrex) consisting of MSC Basal Medium supplemented with 10% fetal bovine serum, L-glutamine, 100 units/ml penicillin, and 0.1 mg/ml streptomycin and grown using culture methods described elsewhere. 2.5×10^4 hMSCs were seeded onto either tissue culture-treated polystyrene (TCP) or four different types of experimental substrates (1 cm^2) (PLG, HA-coated PLG, eBGu3-treated HA coating, or eBGa3-treated HA coating). hMSCs were allowed to attach to each substrate overnight, then cultured in MSCGM with osteogenic culture supplements (OS) (0.1 μM dexamethasone, 50 μg/ml ascorbic acid, and 10 mM β-glycerophosphate) for 24 days. The effects of soluble peptides included in culture medium were evaluated by adding 50 μg of eBGu3 or eBGa3 peptides to hMSC cultures on TCP in 500 μl of medium with or without osteogenic culture supplements. […]
# Characterization of mineralized tissue growth was performed via Alizarin Red-S (ARS) staining at day 20. […] For quantification of staining, 400 μl 10% (v/v) acetic acid was added to each well for 30 minutes with shaking. […] Aliquots (100 μl) of the supernatant were read in triplicate at 405 nm in 96-well plate reader.
# hMSCs [2] = assay: Alkaline phosphatase (ALP) activity in hMSCs; assay type: cell-based, human; conditions: peptide bound to HA-coated film, vs untreated substrates
# Protocol: hMSCs (Cambrex, Walkersville, Md., passages 5-6) were cultured in mesenchymal stem cell growth medium (MSCGM: Cambrex) consisting of MSC Basal Medium supplemented with 10% fetal bovine serum, L-glutamine, 100 units/ml penicillin, and 0.1 mg/ml streptomycin and grown using culture methods described elsewhere. […] The effects of soluble peptides included in culture medium were evaluated by adding 50 μg of eBGu3 or eBGa3 peptides to hMSC cultures on TCP in 500 μl of medium with or without osteogenic culture supplements. […]
# The biological activity of modular peptides was initially assayed by their ability to enhance ALP activity in hMSCs. […] ALP activity was measured at 405 nm, and calculated as the ratio of p-nitrophenol released to total DNA concentration (nmol/min/ng DNA). To determine the amount of total DNA in each well, the cell nuclei were disrupted by addition of the aforementioned lysis buffer followed by centrifugation, and quantified using the CyQUANT Assay Kit (Molecular Probes, Eugene, Oreg.).
# [3] = Binding of rhodamine-labeled peptide to living trabecular bone cores in a bone bioreactor; parameters: species or system bovine; conditions: 100 μg/mL in DMEM circulated, 2-10 hours
# Protocol: The native bone used were harvested from sheep tibia and bovine sternum. Cortical (compact) bone slices were collected from sheep tibia with periosteum removed, and trabecular (cancellous, spongy) bone cores were drilled out from bovine sternum under sterile conditions.
# The peptide binding to native bones was tested in three different experiments. In the first experiment, the cortical bone slices were incubated in modular peptide solution (0.5 mL, PBS) with concentrations of 50, 100, 200 and 300 μg/mL. The incubation was continued in a static condition for a period of 0.5, 1, 2 and 3 hours. […] Following each experiment, the bones were rinsed with PBS to remove unbound peptide and their fluorescence images were captured using a Typhoon fluorescence scanner (GE healthcare) or a Nikon Eclipse Ti inverted microscope. To quantify the fluorescence intensity, the images were converted into 8-bit using ImageJ to present the intensity level of each pixel in the range of 0 to 255. […]
# mBMP binding to living trabecular bone cores (1 cm in diameter and 0.5 cm in thickness) harvested from bovine sternum was assessed. […] After incubating for various time periods, the binding was measured in terms of fluorescence intensity from rhodamine labeled mBMP. […]
substance,measurement,setting,value
KIPKASSVPTELSAISTLYLAAAAγEPRRγEVAγEL (KIPKASSVPTELSAISTLYLAAAA[Gla]PRR[Gla]VA[Gla]L-NH2; N-terminus assumed; SMILES CC[C@H](C)[C@H](NC(=O)[C@H](C)NC(=O)[C@H](CO)NC(=O)[C@H](CC(C)C)NC(=O)[C@H](CCC(=O)O)NC(=O)[C@@H](NC(=O)[C@@H]1CCCN1C(=O)[C@@H](NC(=O)[C@H](CO)NC(=O)[C@H](CO)NC(=O)[C@H](C)NC(=O)[C@H](CCCCN)NC(=O)[C@@H]1CCCN1C(=O)[C@@H](NC(=O)[C@@H](N)CCCCN)[C@@H](C)CC)C(C)C)[C@@H](C)O)C(=O)N[C@@H](CO)C(=O)N[C@H](C(=O)N[C@@H](CC(C)C)C(=O)N[C@@H](Cc1ccc(O)cc1)C(=O)N[C@@H](CC(C)C)C(=O)N[C@@H](C)C(=O)N[C@@H](C)C(=O)N[C@@H](C)C(=O)N[C@@H](C)C(=O)N[C@@H](CC(C(=O)O)C(=O)O)C(=O)N1CCC[C@H]1C(=O)N[C@@H](CCCNC(=N)N)C(=O)N[C@@H](CCCNC(=N)N)C(=O)N[C@@H](CC(C(=O)O)C(=O)O)C(=O)N[C@H](C(=O)N[C@@H](C)C(=O)N[C@@H](CC(C(=O)O)C(=O)O)C(=O)N[C@@H](CC(C)C)C(N)=O)C(C)C)[C@@H](C)O) [eBGa3],effect of immobilized peptide on mineralized tissue formation,hMSCs [1],significantly enhanced
same,effect of immobilized peptide on ALP activity,hMSCs [2],significantly enhanced
same,incubation time at which binding reached a plateau,[3],4 h
